Read-outs that look alike come from different tables or passages of the source. Where a SMILES comes first, the peptide text is derived from it. Bridges are numbered along the chain shown (N, C = ends). Where no end group is shown, it is not given here. [ ]: non-standard residue; d: D form. pY = N[C@@H](Cc1ccc(OP(=O)(O)O)cc1)C(=O)O; Gla = N[C@@H](CC(C(=O)O)C(=O)O)C(=O)O
Key:
[1] = target: T1, p185^erbB-2 receptor association with the Grb2 adapter protein (MDA-MB-453 cell lysates) (Homo sapiens, UniProt P62993); assay: Inhibition of p185erbB-2 interaction with Grb2 in cell homogenates (anti-Grb2 immunoprecipitation, anti-pTyr Western blot); assay type: biochemical
T1 construct: endogenous in cells; host or cells: MDA-MB-453 breast cancer cells
Experimental: Cell lysates were prepared from the serum-treated erbB-2-overexpressing breast cancer cell line MDA-MB-453 using 1% Triton X-100 in PBS containing 0.2 mM NaVO4. Lysates were incubated with the present inventive cyclic peptide inhibitors specified in Example 1 and Example 12, at concentrations of 0.1, 0.4, 2, 10 and 50 μM. No inhibitor was used as a control. Cell lysates were prepared using 1% Triton X-100 in PBS containing 0.2 mM NaVO4. Grb2 and associated Grb2-binding proteins were immunoprecipitated from each lysate (500 μg) with anti-Grb2 antibodies and collected using protein A Sepharose using methods previously described. Immunoprecipitated proteins were separated by SDS-PAGE on 8-16% gradient gels (Novex). pTyr-containing proteins were detected by Western blotting using anti-phosphotyrosine antibodies (Upstate Biotechnology Inc.). Previous experiments have shown that a major tyrosine phosphorylated protein in MDA-MB-453 cells is p185^erbB-2, which is overexpressed as a consequence of gene amplification. […] A dose-dependent inhibition of the p185^erbB-2 receptor association with the Grb2 adapter protein was observed.

[2] = target: T2, p185^erbB-2/Grb2 association in MDA-MB-453 cells (Homo sapiens, UniProt P62993); assay: Inhibition of intracellular p185erbB-2/Grb2 association in whole MDA-MB-453 cells; assay type: cell-based; conditions: for concentration of effective inhibition of p185erbB-2/Grb2 association in cells: whole MDA-MB-453 cells treated 3 hrs in serum-free IMEM, inhibitor 0.1-50 μM
T2 construct: endogenous in cells; host or cells: MDA-MB-453 breast cancer cells
Experimental: The compound of Example 1, and the conjugate of Example 12, were tested in MDA-MB-453 cells (breast cancer cells that overexpress p185^erbB-2 receptor) at inhibitor concentrations of 0.1, 0.4, 2, 10 and 50 μM. In the control experiment, no inhibitor was used. The cells were treated for 3 hrs in serum-free IMEM medium. The cells were washed twice with ice-cold PBS to remove the residual inhibitory compound that was not internalized.
Cell lysates were prepared using 1% Triton X-100 in PBS containing 0.2 mM NaVO4. Grb2 and associated Grb2-binding proteins were immunoprecipitated from each lysate (500 μg) with anti-Grb2 antibodies and collected using protein A Sepharose using methods previously described. Immunoprecipitated proteins were separated by SDS-PAGE on 8-16% gradient gels (Novex). pTyr-containing proteins were detected by Western blotting using anti-phosphotyrosine antibodies (Upstate Biotechnology Inc.). Previous experiments have shown that a major tyrosine phosphorylated protein in MDA-MB-453 cells is p185^erbB-2, which is overexpressed as a consequence of gene amplification.
In these whole cell assays the agents were applied to the cell culture media of MDA-MB-453 cells. These conditions required that compounds transit through the cell membrane.

SH2 domain of Grb2 = SH2 domain of Grb2 (Homo sapiens, UniProt P62993); conditions: background, previously reported values; read-out: IC50 (receptor affinity); cited from earlier work
[3] = target: recombinant GST-Grb2 SH2 protein (Homo sapiens, UniProt P62993); assay: Biacore Surface Plasmon Resonance competitive binding assay against immobilized SHC(pTyr-317)-9-mer phosphopeptide; conditions: Biacore SPR, GST-Grb2-SH2 150-250 nM, PBS pH 7.4; mean of at least two independent experiments; read-out: IC50 (concentration at which half-maximal competition was observed)
Experimental: The competitive binding affinity of the present inventive compounds was assessed using Biacore Surface Plasmon Resonance (SPR) methods utilizing a Biacore 2000 instrument. The concentrations at which half-maximal competition was observed (IC50) were determined by mixing the inhibitor with recombinant GST-Grb2 SH2 protein and measuring the amount of competitive binding at equilibrium to an immobilized (via biotin conjugation to streptavidin coated surface of the Biacore sensor chip SA; 2 nM concentration) SHC(pTyr-317)-9-mer phosphopeptide in a manner similar to that reported previously (Oligino et al. (1997), supra). Specifically, competitive binding assays were carried out at 5 μl/min flow rate, with GST-Grb2-SH2 (150-250 nM) and a cyclic peptide inhibitor (10 nM-2 mM) in phosphate-buffered saline (PBS), pH 7.4, containing 0.01% P-20 surfactant (Biacore, Inc., Piscataway, N.J.) for a total of 10 min. The change in response units (RU) at equilibrium was measured from the absorption profiles and the percent of control (no added peptide) was calculated. […] The results represent the mean value of at least two independent experiments.

recombinant GST-Grb2 SH2 protein, sequence (P62993 60-152 limits assumed): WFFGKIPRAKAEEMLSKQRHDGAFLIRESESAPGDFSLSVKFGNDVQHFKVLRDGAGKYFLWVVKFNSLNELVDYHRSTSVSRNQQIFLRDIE
SH2 domain of Grb2, sequence (P62993 60-152 limits assumed): as above

IC50 [3]	IC50 ([1]; MDA-MB-453 cell lysates, inhibitor 0.1-50 μM, read-out: half-maximal inhibition of p185erbB-2/Grb2 protein association)	Compound	IC50 [1]	reduction in the associated p185erbB-2 bound to Grb2 in cells ([2]; whole MDA-MB-453 cells pre-treated with increasing amounts)	concentration of effective inhibition of p185erbB-2/Grb2 association in cells [2]	IC50 (SH2 domain of Grb2)
		CSCC[C@@H]1NC(=O)CNC(=O)[C@H](C(C)C)NC(=O)[C@H](CC(N)=O)NC(=O)[C@H](CCC(=O)O)NC(=O)[C@H](Cc2ccc(O)cc2)NC(=O)[C@H](CC(C)C)NC(=O)[C@H](CC(C(=O)O)C(=O)O)NC(=O)CSC[C@@H](C(=O)N[C@@H](C)C(=O)N[C@@H](C)C(=O)N[C@H](C(=O)N[C@@H](C)C(=O)N[C@@H](CC(C)C)C(=O)N[C@@H](CC(C)C)C(=O)N2CCC[C@H]2C(=O)N[C@@H](C)C(=O)N[C@H](C(=O)N[C@@H](CC(C)C)C(=O)N[C@@H](CC(C)C)C(=O)N[C@@H](C)C(=O)N[C@@H](CC(C)C)C(=O)N[C@@H](CC(C)C)C(=O)N[C@@H](C)C(=O)N2CCC[C@H]2C(N)=O)C(C)C)C(C)C)NC(=O)[C@H](Cc2ccc(O)cc2)NC1=O [Example 12, cyclo(CH2CO-Gla^1-Leu^2-Tyr^3-Glu^4-Asn^5-Val^6-Gly^7-Met^8-Tyr^9-Cys)-NH-Ala-Ala-Val-Ala-Leu-Leu-Pro-Ala-Val-Leu-Leu-Ala-Leu-Leu-Ala-Pro] ({CH2CO}-[Gla]LYENVGMYCAAVALLPAVLLALLAP-NH2; thioether N-10)	2 µM	clear dose-dependent reduction	2 µM	
		SHC(pY^317)-9-mer: segment of the naturally phosphorylated ligand (DDPS[pY]VNVQ)				1 µM
0.64 ± 0.1 µM	2 µM	CSCC[C@@H]1NC(=O)CNC(=O)[C@H](C(C)C)NC(=O)[C@H](CC(N)=O)NC(=O)[C@H](CCC(=O)O)NC(=O)[C@H](Cc2ccc(O)cc2)NC(=O)[C@H](CC(C)C)NC(=O)[C@H](CC(C(=O)O)C(=O)O)NC(=O)CSC[C@@H](C(N)=O)NC(=O)[C@H](Cc2ccc(O)cc2)NC1=O [Example 1, cyclo(CH2CO-Gla^1-Leu^2-Tyr^3-Glu^4-Asn^5-Val^6-Gly^7-Met^8-Tyr^9-Cys)-amide] ({CH2CO}-[Gla]LYENVGMYC-NH2; thioether N-10)			50 µM	

— US7259142B2, “Redox-stable, non-phosphorylated cyclic peptide inhibitors of SH2 domain binding to target protein, conjugates thereof, compositions and methods of synthesis and use” (The United States of America, represented by the Secretary, …, priority 1999, dated 2007)
